From US12396458B2, “Fused ring substituted aromatic compound and preparation method therefor, herbicidal composition, and use thereof” (Qingdao Kingagroot Chemical Compound Co., Ltd., priority 2020, dated 2025) come the findings set out here.

Assay in all cases: Weeding effect in post-emergence stage (greenhouse pot test)
What all share (format): in vivo

The test system of experiment [1] is Conyza japonica. The settings on record: fresh weight control rate. Summed up:
(§1)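 Greenhouse pot plants sprayed at 2-3 leaf stage (2 weeks after sowing) with compound in acetone/Tween 80 plus 1.5 L/ha methyl oleate EC, at 500, 250, 125, 60, 15, 7.5 g a.i./ha. Fresh-weight growth control scored 3 weeks later on a 0-5 scale (level 5 >85%, level 0 <5%); three replicates averaged.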

The subject of experiment [2] is Digitaria sanguinalis. To be noted: dose 7.5 g a.i./ha, fresh weight control rate. An outline of the steps:
as §1

In experiment [3] the test system is Eleusine indica. The settings on record: dose 7.5 g a.i./ha, fresh weight control rate. An outline of the steps: as §1
For experiment [4], the system named is Rorippa indica. The settings on record: dose 7.5 g a.i./ha, fresh weight control rate. An outline of the steps: as §1
Experiment [5] has as its system Setaria viridis. The settings on record: dose 7.5 g a.i./ha, fresh weight control rate. An outline of the steps:
as §1

The test system of experiment [6] is Alopecurus japonicus. To be noted: 3 weeks after application, fresh weight control rate. Summed up: as §1
Experiment [7] relates to Beckmannia syzigachne. The settings on record: 3 weeks after application, fresh weight control rate. An outline of the steps:
as §1

For experiment [8], the system named is Capsella bursa-pastoris. The settings on record: 3 weeks after application, fresh weight control rate. Summed up: as §1
Where [9] appears, read: post-emergence control test, dose 7.5 g a.i./ha.
The mark [10] stands for this setting: post-emergence, dose 15 g a.i./ha, 3 weeks after application.

SMILES strings stand for the structures.

Take `CCOC(=O)C1(C)CC(c2cc(-n3c(=O)n(C)c(=S)n(C)c3=O)c(F)cc2Cl)=NO1` (stereo not shown) [Control compound A, reference compound]: the “Activity level (growth control rate), Conyza japonica” value (shortened to “Activity level … Conyza japonica”) in experiment [1] (setting [9]) is 2 (Level 2: growth control rate is greater than or equal to 20% and less than 40%). Further, the “Activity level (growth control rate), Digitaria sanguinalis” value (“Activity level … Digitaria sanguinalis” below) in experiment [2] is 2 (Level 2: growth control rate is greater than or equal to 20% and less than 40%). Further, the “Activity level (growth control rate), Eleusine indica” value (from here on “Activity level … Eleusine indica”) in experiment [3] was 3 (Level 3: growth control rate is greater than or equal to 40% and less than 60%). Further, in experiment [4], the “Activity level (growth control rate), Rorippa indica” value (“Activity level … Rorippa indica” for short) was 2 (Level 2: growth control rate is greater than or equal to 20% and less than 40%). In experiment [5], the “Activity level (growth control rate), Setaria viridis” value (“Activity level … Setaria viridis” below) is 2 (Level 2: growth control rate is greater than or equal to 20% and less than 40%).
In the case of `CCOC(=O)C1(C)CC(c2cc(-n3c(=O)cc(C(F)(F)F)n(C)c3=O)c(F)cc2Cl)=NO1` (stereo not shown) [Control compound B, reference compound], in experiment [1] (setting [9]), the “Activity level … Conyza japonica” value is 2 (Level 2: growth control rate is greater than or equal to 20% and less than 40%). In experiment [2], the “Activity level … Digitaria sanguinalis” value is 2 (Level 2: growth control rate is greater than or equal to 20% and less than 40%). Also, the “Activity level … Eleusine indica” value in experiment [3] was 3 (Level 3: growth control rate is greater than or equal to 40% and less than 60%). The “Activity level … Rorippa indica” value in experiment [4] was 2 (Level 2: growth control rate is greater than or equal to 20% and less than 40%). Also, in experiment [5], the “Activity level … Setaria viridis” value is 3 (Level 3: growth control rate is greater than or equal to 40% and less than 60%).
`CCOC(=O)C12CCCC1C(c1cc(-n3c(=O)n(C)c(=S)n(C)c3=O)c(F)cc1Cl)=NO2` (stereo not shown) [Compound 3]: in experiment [6] (dose 15 g a.i./ha), the “Activity level (growth control rate), Alopecurus japonicus” value (“Activity level … Alopecurus japonicus” below) is reported as 5 (Level 5: growth control rate is above 85%). The “Activity level (growth control rate), Beckmannia syzigachne” value (shortened to “Activity level … Beckmannia syzigachne”) in experiment [7] (dose 15 g a.i./ha) is 5 (Level 5: growth control rate is above 85%). Further, in experiment [8] (dose 15 g a.i./ha), the “Activity level (growth control rate), Capsella bursa-pastoris” value (from here on “Activity level … Capsella bursa-pastoris”) was 5 (Level 5: growth control rate is above 85%). In addition, the “Activity level … Conyza japonica” value in experiment [1] (setting [9]) was 3 (Level 3: growth control rate is greater than or equal to 40% and less than 60%); in experiment [1] (setting [10]), 4 (Level 4: growth control rate is greater than or equal to 60% and less than 85%). For the same compound, in experiment [2], the “Activity level … Digitaria sanguinalis” value is 4 (Level 4: growth control rate is greater than or equal to 60% and less than 85%). Further, the “Activity level … Eleusine indica” value in experiment [3] is 4 (Level 4: growth control rate is greater than or equal to 60% and less than 85%). In experiment [4], the “Activity level … Rorippa indica” value was 5 (Level 5: growth control rate is above 85%). The “Activity level … Setaria viridis” value in experiment [5] was 4 (Level 4: growth control rate is greater than or equal to 60% and less than 85%).
Regarding `Cn1c(C(F)(F)F)cc(=O)n(-c2cc(C3=NOC4(C(=O)O)CCCC34)c(Cl)cc2F)c1=O` (stereo not shown) [Compound 213], the “Activity level … Alopecurus japonicus” value in experiment [6] (dose 15 g a.i./ha) was 5 (Level 5: growth control rate is above 85%). In addition, in experiment [7] (dose 15 g a.i./ha), the “Activity level … Beckmannia syzigachne” value is 5 (Level 5: growth control rate is above 85%). Also, in experiment [8] (dose 15 g a.i./ha), the “Activity level … Capsella bursa-pastoris” value is recorded as 5 (Level 5: growth control rate is above 85%). In addition, the “Activity level … Conyza japonica” value in experiment [1] (setting [10]) was 4 (Level 4: growth control rate is greater than or equal to 60% and less than 85%).
Consider `CCOC(=O)CCC12CCCC1C(c1cc(-n3c(=O)cc(C(F)(F)F)n(C)c3=O)c(F)cc1Cl)=NO2` (stereo not shown) [Compound 533], for which the “Activity level … Alopecurus japonicus” value in experiment [6] (dose 125 g a.i./ha) is listed as 5 (Level 5: growth control rate is above 85%). Also, the “Activity level … Beckmannia syzigachne” value in experiment [7] (dose 125 g a.i./ha) is reported as 5 (Level 5: growth control rate is above 85%). The “Activity level … Capsella bursa-pastoris” value in experiment [8] (dose 125 g a.i./ha) was 5 (Level 5: growth control rate is above 85%). Besides, the “Activity level … Conyza japonica” value in experiment [1] (post-emergence, dose 125 g a.i./ha, 3 weeks after application) is given as 5 (Level 5: growth control rate is above 85%).
As to `COC(=O)C12CCCC1C(c1cc(-n3c(=O)cc(C(F)(F)F)n(C)c3=O)c(F)cc1Cl)=NO2` (stereo not shown) [Compound 209], in experiment [6] (dose 15 g a.i./ha), the “Activity level … Alopecurus japonicus” value is given as 5 (Level 5: growth control rate is above 85%). Further, the “Activity level … Beckmannia syzigachne” value in experiment [7] (dose 15 g a.i./ha) was 5 (Level 5: growth control rate is above 85%). Besides, in experiment [8] (dose 15 g a.i./ha), the “Activity level … Capsella bursa-pastoris” value was 5 (Level 5: growth control rate is above 85%). Also, the “Activity level … Conyza japonica” value in experiment [1] (setting [9]) was 4 (Level 4: growth control rate is greater than or equal to 60% and less than 85%); in experiment [1] (setting [10]), 5 (Level 5: growth control rate is above 85%). In experiment [2], the “Activity level … Digitaria sanguinalis” value is on record as 5 (Level 5: growth control rate is above 85%). In addition, the “Activity level … Eleusine indica” value in experiment [3] is reported as 5 (Level 5: growth control rate is above 85%). The “Activity level … Rorippa indica” value in experiment [4] is given as 5 (Level 5: growth control rate is above 85%). Also, the “Activity level … Setaria viridis” value in experiment [5] is 5 (Level 5: growth control rate is above 85%).
With `C#CCOC(=O)C12CCCC1C(c1cc(-n3c(=O)cc(C(F)(F)F)n(C)c3=O)c(F)cc1Cl)=NO2` (stereo not shown) [Compound 225], the “Activity level … Alopecurus japonicus” value in experiment [6] (dose 15 g a.i./ha) is given as 5 (Level 5: growth control rate is above 85%). The “Activity level … Beckmannia syzigachne” value in experiment [7] (dose 15 g a.i./ha) is recorded as 5 (Level 5: growth control rate is above 85%). In addition, the “Activity level … Capsella bursa-pastoris” value in experiment [8] (dose 15 g a.i./ha) is recorded as 5 (Level 5: growth control rate is above 85%). Besides, the “Activity level … Conyza japonica” value in experiment [1] (setting [10]) was 4 (Level 4: growth control rate is greater than or equal to 60% and less than 85%).
